Laboratory results as given in patent publication US11400076B2, “Cancer stem cell inhibitor” (KEIO UNIVERSITY, priority 2017, dated 2022).

What was measured:
[1] = system: cancer stem cells (spheroid-forming cells); experiment: Spheroid culture of cancer stem cells in 96-well plate with analyte; type: cell-based, mice; details: various concentration of analytes, medium without differentiation-inducing component, FIG. 2
Description: (§1) In accordance with the literature ([…]. et. al., Neoplasia, 13(9) 2011, 784 to 791), the subventricular zone was resected from Ink4a/Arf deficient mice and subjected to trypsin treatment to obtain spheroid-forming cells. The resulting spheroids were cultured in a culture medium containing no differentiation-inducing component (DMEM/F12 in which 20 ng/mL of EGF, 20 ng/mL of FGF, B27 supplement in which vitamin A was removed, 200 ng/mL of heparan sulfate, 100 U/mL of penicillin, and 100 U/mL of streptomycin were added) in a flow of 5% carbon dioxide at 37° C. Then, a constitutively active, mutated form of H-Ras and, as necessary, reporter cassettes for detecting, for example, fluorescent signals or selection marker for cell selection, for example, drug-resistant cassettes, were incorporated into cancer stem cells for transformation, and cultured to obtain spheroid-forming cells. These cells were transplanted to the brains of C57BL/6 mice, then the formed brain tumors were resected and subjected to trypsin treatment to obtain cells. Drug-resistant or fluorescent reporter-positive cells were sorted, and then cell cycle markers were introduced into part of the cells. Thus-obtained spheroid-forming cells were cultured under the above-described culturing condition, and used as a sample. […]

[2] = system: cancer stem cells (spheroid-forming cells); experiment: Monolayer culture of cancer stem cells, cell cycle and growth; type: cell-based, mice; details: various concentrations, FIG. 3
Description: as §1, with “sample. The above cells were subjected to monolayer culture.” for “sample.”

[3] = system: cancer stem cells (spheroid); experiment: Spheroid cell death monitored with propidium iodide (PI); type: cell-based, mice; details: for cell death (PI positive area): spheroid, PI added, monitored over time, FIG. 4
Description: In accordance with the literature (Sampetrean O. et. al., Neoplasia, 13(9) 2011, 784 to 791), the subventricular zone was resected from Ink4a/Arf deficient mice and subjected to trypsin treatment to obtain spheroid-forming cells. The resulting spheroids were cultured in a culture medium containing no differentiation-inducing component (DMEM/F12 in which 20 ng/mL of EGF, 20 ng/mL of FGF, B27 supplement in which vitamin A was removed, 200 ng/mL of heparan sulfate, 100 U/mL of penicillin, and 100 U/mL of streptomycin were added) in a flow of 5% carbon dioxide at 37° C. […] These cells were transplanted to the brains of C57BL/6 mice, then the formed brain tumors were resected and subjected to trypsin treatment to obtain cells. Drug-resistant or fluorescent reporter-positive cells were sorted, and then cell cycle markers were introduced into part of the cells. Thus-obtained spheroid-forming cells were cultured under the above-described culturing condition, and used as a sample.

cancer stem cells [4] = experiment: ATP levels in cancer stem cells; type: cell-based, mice; details: 21% oxygen (normoxic) and 1% oxygen (hypoxic), FIG. 6
Description: (§2) Since the cell cycle was arrested in the G1 phase, a decrease in energy metabolism was suspected. ATP levels under 21% oxygen (normoxic condition) and 1% oxygen (hypoxic condition) were measured using the same cells as in Example 1. […] From this, suppression of mitochondrial function was suspected, and so, mitochondrial function was evaluated by extracellular flux analysis.

[5] = system: mitochondria in cancer stem cells; experiment: Mitochondrial function by extracellular flux analysis; type: cell-based, mice; details: 21% oxygen (normoxic) and 1% oxygen (hypoxic), FIG. 6
Description: as §2

mitochondrial complex II = experiment: Expression levels of mitochondrial complex I to V by electrophoresis and Western Blot; type: cell-based, mice; details: protein extracted from cells of Example 1, FIG. 7
Description: Furthermore, protein was extracted from cells of Example 1, and the expression levels of mitochondrial complex I to V were measured by electrophoresis and Western Blot.

[6] = system: reactive oxygen species (ROS) in mitochondria; experiment: Mito Sox staining, mitochondrial ROS by flow cytometry; type: cell-based, mice; details: FIG. 8
Source text: Using Mito Sox staining, reactive oxygen species (ROS) in mitochondria was quantified by flow cytometry for the cells cultured according to Example 1, with or without doranidazole, misonidazole, or metronidazole.

[7] = system: undifferentiated cancer stem cells; experiment: Effect with altered degree of induction of differentiation by serum; type: cell-based, mice; details: serum-free vs serum-containing medium, 4 days, FIG. 9
Source text: Using the method similar to Example 1, the degree of induction of differentiation was altered by changing the culture mediums, to observe the effect thereby. Specifically, a group cultured in a serum-free culture medium of Example 1 for consecutive 4 days; a group cultured in a serum-free culture medium for 3 days, and then cultured in a serum-containing culture medium for 1 day; a group cultured in a serum-containing culture medium for 3 days, and then cultured in a serum-free culture medium for 1 day; and the remaining one group cultured in a serum-containing culture medium for 4 days; were prepared. According to such culturing, the degree of induction of differentiation by serum was altered and the effect of doranidazole was confirmed.

cancer stem cells [8] = experiment: Radiation-induced double-strand break, Hoechst 33324 and γH2AX double staining; type: cell-based, mice; details: irradiated, hypoxic condition, FIG. 10
Source text: Cells cultured according to the method of Example 1, with or without doranidazole, were irradiated, followed by double staining with Hoechst 33324 and γH2AX, and then double-strand break was quantified.

[9] = in vivo; cited from earlier work

## O=[N+]([O-])c1nccn1COC(CO)C(O)CO (centres unmarked) [doranidazole]
[1]
  growth of spheroids: suppresses the growth of spheroids
[2]
  cell cycle: arrests the cell cycle in the G1 phase
  growth: suppresses growth
[3]; inhibitor comparison, FIG. 5
  type of cell death: ferroptosis
[3]
  cell death (PI positive area): cell death is induced by doranidazole in dose dependent manner
Cancer stem cells [4]
  ATP content of cancer stem cells: decreased
[5]
  oxygen consumption of mitochondria: decreased depending on the concentration
  reserve capacity of mitochondria: decreased depending on the concentration
Mitochondrial complex II
  expression of complex II: remarkably decreased
[6]
  ROS in mitochondria: significantly increases
[7]
  effect depending on degree of induction of differentiation by serum: when the degree of induction of differentiation by serum is low, the effect of doranidazole is remarkable
Cancer stem cells [8]
  radiation-induced double-strand break: significantly enhances
[9]
  LD50: ≥ 5000 mg/kg

## CCOC(=O)c1ccc(NC2CCCCC2)c(N)c1 [ferrostatin 1]
[3]; compared to DMSO, necrostatin 1 and Z-VAD-FMK, FIG. 5
  suppression of doranidazole-induced cell death: significantly suppressed

## Cc1ncc([N+](=O)[O-])n1CCO [metronidazole]
[3]
  cell death (PI positive area): no cell death was observed
[6]
  ROS in mitochondria: not observed

## COCC(O)Cn1ccnc1[N+](=O)[O-] (centres unmarked) [misonidazole]
[3]
  cell death (PI positive area): the cell death was similarly confirmed
Mitochondrial complex II
  expression of complex II: remarkably decreased
[6]
  ROS in mitochondria: significantly increases
[9]
  LD50: about 1 g/kg
